Laboratory results: PubChem BioAssay (NCI)
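Cultured in 96-well plates, cells were exposed to test compound for 48 hours across five concentrations. Definition used: TGI = concentration required for complete inhibition of growth.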

Experiments:
Assay in all cases: NCI-60 cell line screen, 48 h
EKVX NSCLC = system: EKVX NSCLC
HCC-2998 colon = system: HCC-2998 colon
CAKI-1 renal = system: CAKI-1 renal
UO-31 renal = system: UO-31 renal
MALME-3M melanoma = system: MALME-3M melanoma
TK-10 renal = system: TK-10 renal
K-562 leukemia = system: K-562 leukemia
CCRF-CEM leukemia = system: CCRF-CEM leukemia
M19-MEL melanoma = system: M19-MEL melanoma
HCT-116 colon = system: HCT-116 colon
SF-268 CNS = system: SF-268 CNS
A498 renal = system: A498 renal
U251 CNS = system: U251 CNS
786-0 renal = system: 786-0 renal
OVCAR-3 ovarian = system: OVCAR-3 ovarian
DLD-1 colon = system: DLD-1 colon
NCI-H23 lung = system: NCI-H23 lung
HOP-92 NSCLC = system: HOP-92 NSCLC
SK-OV-3 ovarian = system: SK-OV-3 ovarian
KM20L2 colon = system: KM20L2 colon
OVCAR-4 ovarian = system: OVCAR-4 ovarian
SK-MEL-28 melanoma = system: SK-MEL-28 melanoma
SNB-75 CNS = system: SNB-75 CNS
HT29 colon = system: HT29 colon
DMS 114 small cell lung = system: DMS 114 small cell lung
LOX IMVI melanoma = system: LOX IMVI melanoma
COLO 205 colon = system: COLO 205 colon
SNB-19 CNS = system: SNB-19 CNS
UACC-257 melanoma = system: UACC-257 melanoma
SF-295 CNS = system: SF-295 CNS
SK-MEL-5 melanoma = system: SK-MEL-5 melanoma
KM12 colon = system: KM12 colon
ACHN renal = system: ACHN renal
LXFL 529 NSCLC = system: LXFL 529 NSCLC
SN12C renal = system: SN12C renal
HOP-62 NSCLC = system: HOP-62 NSCLC
RXF 393 renal = system: RXF 393 renal
SNB-78 CNS = system: SNB-78 CNS
OVCAR-5 ovarian = system: OVCAR-5 ovarian
OVCAR-8 ovarian = system: OVCAR-8 ovarian
NCI-H226 lung = system: NCI-H226 lung
IGROV1 ovarian = system: IGROV1 ovarian
UACC-62 melanoma = system: UACC-62 melanoma
NCI-H460 lung = system: NCI-H460 lung
NCI-H522 lung = system: NCI-H522 lung
DMS 273 small cell lung = system: DMS 273 small cell lung
XF 498 CNS = system: XF 498 CNS
A549 NSCLC = system: A549 NSCLC
HL-60(TB) leukemia = system: HL-60(TB) leukemia
SF-539 CNS = system: SF-539 CNS
M14 melanoma = system: M14 melanoma
RPMI-8226 leukemia = system: RPMI-8226 leukemia
SW-620 colon = system: SW-620 colon
MOLT-4 leukemia = system: MOLT-4 leukemia
SR leukemia = system: SR leukemia

CCOC(=O)C1N(S(=O)(=O)c2ccc(C)cc2)CCC12c1ccccc1N(C(C)=O)C2c1ccc(OC)c(OC)c1 (stereo not drawn) gave a TGI (EKVX NSCLC) greater than 100 µM, a TGI (HCC-2998 colon) greater than 100 µM and a TGI (CAKI-1 renal) greater than 100 µM. It also gave a TGI (UO-31 renal) greater than 100 µM, a TGI (MALME-3M melanoma) greater than 100 µM and a TGI (TK-10 renal) greater than 100 µM. It also gave a TGI (K-562 leukemia) greater than 100 µM, a TGI (CCRF-CEM leukemia) greater than 100 µM and a TGI (M19-MEL melanoma) greater than 100 µM. For the same compound, the TGI (HCT-116 colon) was greater than 100 µM, the TGI (SF-268 CNS) was greater than 100 µM and the TGI (A498 renal) was greater than 100 µM. The TGI (U251 CNS) was greater than 100 µM, the TGI (786-0 renal) was greater than 100 µM and the TGI (OVCAR-3 ovarian) was greater than 100 µM. It also gave a TGI (DLD-1 colon) greater than 100 µM, a TGI (NCI-H23 lung) greater than 100 µM and a TGI (HOP-92 NSCLC) greater than 100 µM. For the same compound, the TGI (SK-OV-3 ovarian) was greater than 100 µM, the TGI (KM20L2 colon) was greater than 100 µM and the TGI (OVCAR-4 ovarian) was greater than 100 µM. The TGI (SK-MEL-28 melanoma) was greater than 100 µM, the TGI (SNB-75 CNS) was greater than 100 µM and the TGI (HT29 colon) was greater than 100 µM. It also gave a TGI (DMS 114 small cell lung) greater than 100 µM, a TGI (LOX IMVI melanoma) greater than 100 µM and a TGI (COLO 205 colon) greater than 100 µM. The TGI (SNB-19 CNS) was greater than 100 µM, the TGI (UACC-257 melanoma) was greater than 100 µM and the TGI (SF-295 CNS) was greater than 100 µM. For the same compound, the TGI (SK-MEL-5 melanoma) was greater than 100 µM, the TGI (KM12 colon) was greater than 100 µM and the TGI (ACHN renal) was greater than 100 µM. For the same compound, the TGI (LXFL 529 NSCLC) was greater than 100 µM, the TGI (SN12C renal) was greater than 100 µM and the TGI (HOP-62 NSCLC) was greater than 100 µM. For the same compound, the TGI (RXF 393 renal) was greater than 100 µM, the TGI (SNB-78 CNS) was greater than 100 µM and the TGI (OVCAR-5 ovarian) was greater than 100 µM. For the same compound, the TGI (OVCAR-8 ovarian) was greater than 100 µM, the TGI (NCI-H226 lung) was greater than 100 µM and the TGI (IGROV1 ovarian) was greater than 100 µM. For the same compound, the TGI (UACC-62 melanoma) was greater than 100 µM, the TGI (NCI-H460 lung) was greater than 100 µM and the TGI (NCI-H522 lung) was greater than 100 µM. The TGI (DMS 273 small cell lung) was greater than 100 µM, the TGI (XF 498 CNS) was greater than 100 µM and the TGI (A549 NSCLC) was greater than 100 µM. For the same compound, the TGI (HL-60(TB) leukemia) was greater than 100 µM, the TGI (SF-539 CNS) was greater than 100 µM and the TGI (M14 melanoma) was greater than 100 µM. For the same compound, the TGI (RPMI-8226 leukemia) was greater than 100 µM and the TGI (SW-620 colon) was greater than 100 µM.
With COc1ccc(/C=N/n2cnc3c(sc(=S)n3-c3ccccc3)c2=O)cc1 the TGI (HCC-2998 colon) was greater than 100 µM, the TGI (UO-31 renal) was greater than 100 µM and the TGI (TK-10 renal) was 65.4 µM. It also gave a TGI (K-562 leukemia) of 48.8 µM, a TGI (CCRF-CEM leukemia) of 57.8 µM and a TGI (M19-MEL melanoma) greater than 100 µM. The TGI (HCT-116 colon) was greater than 100 µM, the TGI (SF-268 CNS) was 38.8 µM and the TGI (MOLT-4 leukemia) was 90.9 µM. It also gave a TGI (U251 CNS) greater than 100 µM, a TGI (OVCAR-3 ovarian) of 38.1 µM and a TGI (DLD-1 colon) greater than 100 µM. For the same compound, the TGI (NCI-H23 lung) was 87.3 µM, the TGI (HOP-92 NSCLC) was 29.6 µM and the TGI (SK-OV-3 ovarian) was 58.6 µM. For the same compound, the TGI (SR leukemia) was greater than 100 µM, the TGI (SK-MEL-28 melanoma) was 38.6 µM and the TGI (SNB-75 CNS) was 7.87 µM. It also gave a TGI (HT29 colon) greater than 100 µM, a TGI (COLO 205 colon) greater than 100 µM and a TGI (SNB-19 CNS) of 77.5 µM. For the same compound, the TGI (UACC-257 melanoma) was greater than 100 µM, the TGI (SF-295 CNS) was 31.5 µM and the TGI (SK-MEL-5 melanoma) was greater than 100 µM. For the same compound, the TGI (KM12 colon) was greater than 100 µM, the TGI (ACHN renal) was greater than 100 µM and the TGI (LXFL 529 NSCLC) was 48.8 µM. The TGI (HOP-62 NSCLC) was 37.3 µM, the TGI (OVCAR-5 ovarian) was greater than 100 µM and the TGI (OVCAR-8 ovarian) was greater than 100 µM. It also gave a TGI (NCI-H226 lung) of 54.4 µM, a TGI (IGROV1 ovarian) greater than 100 µM and a TGI (UACC-62 melanoma) of 49.8 µM. It also gave a TGI (NCI-H460 lung) greater than 100 µM, a TGI (NCI-H522 lung) of 30.1 µM and a TGI (A549 NSCLC) greater than 100 µM. For the same compound, the TGI (HL-60(TB) leukemia) was 37.9 µM, the TGI (SF-539 CNS) was 28.5 µM and the TGI (RPMI-8226 leukemia) was 58.8 µM. It also gave a TGI (SW-620 colon) greater than 100 µM.
